Values quoted from earlier work as cited in patent US11103587B2, “Multiple oligonucleotide moieties on peptide carrier” (Genzyme Corporation, priority 2014, dated 2021).

What was measured:
[1] = system: exon 23 of the mRNA encoding for dystrophin; conditions: mdx mouse, cited from earlier work
[2] = mice; cited from earlier work

GGCCAAACCTCGGCTTACCTGAAAT (PMO backbone, chemistry not fully specified) [PMO23, PMO designed to skip exon 23 of the mRNA encoding for dystrophin]
skipping of exon 23 in cardiac muscle ([1]; cardiac muscle): does not effect exon 23 skipping in cardiac muscle | skipping of exon 23 in skeletal muscle ([1]; skeletal muscle): < 15% | amount administered without any noticeable toxic effects [2]: ≤ 250 mg/kg
